Where two headings read alike, the source gives them in different places.
Assays:
[1] = target: T1, PI3Kα (Homo sapiens, UniProt P42336); assay: PI3Kα activity inhibition (Kinase-Glo); type: biochemical
T1 construct: purchased Invitrogen PV4788
Outline: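 Kinase-Glo luminescence read-out of remaining ATP after PI3K reaction with PIP2 and ATP substrates in 50 mM HEPES pH 7.5, 3 mM MgCl2, 1 mM EGTA, 100 mM NaCl, 0.03% CHAPS, 2 mM DTT. Incubated at ambient temperature, 1 h for PI3Kα, 2 h for PI3Kδ. IC50 from four-parameter fit of % inhibition versus concentration.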

[2] = test system: MV4-11 cells (acute myeloid leukemia); assay: Cell proliferation inhibition, MV4-11 (cck-8); type: cell-based; conditions: Homo sapiens
Outline: (§1)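 Cells seeded at 2000-3000/well; adherent lines dosed after attachment, then 96 h incubation with compound. Viability read by MTT for solid-tumour lines (HCT116, A2780s) and CCK-8 for MV4-11; IC50 from four-parameter logistic fit of inhibition ratio versus concentration.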

[3] = target: T2, PI3Kδ (Homo sapiens, UniProt O00329); assay: PI3Kδ activity inhibition (Kinase-Glo); type: biochemical; conditions: Table 1, graded
T2 construct: purchased Millipore 14-604-K
Procedure: Detecting the inhibition capability of the compound to PI3Kα and PI3Kδ activities with Kinase-Glo (purchased from Promege Company; Catalog No.: V3771). […] The reaction system also comprises substrates as PIP2 (4, 5-diphosphoinositide, purchased from Life Technologies Company) and ATP (triphosadenine, purchased from Sigma Company). The reaction buffer system comprises 50 mM HEPES (4-hydroxyethylpiperazine ethane sulfonic acid), 3 mM MgCl2, 1 mM EGTA (ethylene glycol bis(2-amino ethylether)quadrol), 100 mM NaCl, 0.03% CHAPS (3-[3-(cholamidopropyl)dimethylamino]-1-propanesulfonic acid), 2 mM DTT (dithiothreitol). The pH value of the reaction buffer is 7.5. […] Mixing the system evenly for incubation under ambient temperature (for 1 h in PI3Kα test and for 2 h in PI3Kδ test). After incubation, adding 10 μL Kinase-Glo which has been preheated to ambient temperature into each reaction well to terminate the reaction; shaking it in dark place for 15 min after it is mixed evenly, then measuring the fluorescence intensity with a microplate reader and analyzing the result data with the software GraphPad Prism.
(§2) Calculating the value of IC50 as per the formula: Y=background data+(top data−background data)/(1+10^((Log IC50−X)*rate of curve))
(§3) Where, Y refers to the inhibition ratio (%) and X refers to the compound concentration.

[4] = test system: hct116 cells (colon cancer); assay: Cell proliferation inhibition, hct116 (MTT); type: cell-based; conditions: Homo sapiens, HCT-116
Outline: as §1

[5] = test system: A2780s cells (ovarian cancer); assay: Cell proliferation inhibition, A2780s (MTT); type: cell-based; conditions: Homo sapiens
Outline: as §1

[6] = target: T3, HDAC1 (Homo sapiens, UniProt Q13547); assay: In vitro HDAC1 enzymatic activity inhibition (Lys-Ac-AMC substrate); type: biochemical
T3 construct: purchased BPS Bioscience
Outline: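 Fluorogenic Lys-Ac-AMC deacetylation with trypsin development in modified Tris buffer pH 7.0; compound preincubated with enzyme 15 min at ambient temperature before substrate addition. Final HDAC1 6 nM, trypsin 0.05 μM, Ac-peptide 8 μM. IC50 from four-parameter fit of % inhibition versus concentration.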

[7] = target: T4, PI3Kβ (Homo sapiens, UniProt P42338); assay: PI3Kβ activity inhibition (ADP-Glo); type: biochemical; conditions: Table 1, graded
T4 construct: purchased Millipore 14-603-K
Procedure: (§4) Detecting the inhibition capability of the compound to PI3Kβ and PI3Kγ activities with ADP-Glo (purchased from Promege Company; Catalog No.: v9102/3). […] The reaction system also comprises substrates as PIP2 and ATP. The reaction buffer system comprises 50 mM HEPES, 3 mM MgCl2, 1 mM EGTA, 100 mM NaCl, 0.03% CHAPS and 2 mM DTT. The pH value of the reaction buffer is 7.5. […] Mixing the system evenly for incubation under ambient temperature for 1 h; getting a new 384 well plate and transferring 5 μL reaction liquid from the each well of original 384 well plate to the corresponding wells of the new 384 well plate; adding 5 μL ADP-Glo which has been preheated to ambient temperature into each new reaction well to terminate the reaction; oscillating it slowly in dark place for 40 min's incubation after it is mixed evenly; adding 10 μL testing liquid in each reaction well, oscillating it for 1 min to mix evenly and incubating it for 1 h, then measuring the fluorescence intensity with a microplate reader and analyzing the result data with the software GraphPad Prism.
as §2, §3

[8] = target: T5, PI3Kγ (Homo sapiens, UniProt P48736); assay: PI3Kγ activity inhibition (ADP-Glo); type: biochemical; conditions: Table 1, graded
T5 construct: purchased Invitrogen PR8641C
Procedure: as §4, §2, §3

[9] = target: T6, mTOR (Homo sapiens, UniProt P42345); assay: mTOR activity inhibition (ULight-4E-BP1 peptide); type: biochemical; conditions: Table 1, graded
T6 construct: purchased Millipore 14-770
Procedure: mTOR protein is purchased from Millipore Company (Catalog No.: 14-770). The reaction buffer system comprises 50 mM HEPES, 10 mM MgCl2, 1 mM EGTA, 3 mM […], 0.01% Tween-20 (purchased from Chengdu Kelong Chemical Regent Factory) and 2 mM DTT. The pH value of the reaction buffer is 7.5. Preparing 10 μL reaction system in corresponding wells of the 384 well plate, which contains the compositions as: the compound with designed concentration (or blank control), mTOR protein (with the concentration of 2.5 nM), ULight-4E-BP1 (containing the 37th and the 46th threonine residues, Thr37/46) peptide (purchased from PE Company, Catalog No.: TRF0128-M) and ATP substrates (ULight-4E-BP1 peptide, with the concentration of 50 nM and ATP, with the concentration of […]). Mixing it evenly for incubation under ambient temperature for 1 h; adding 10 μL testing liquid containing EDTA (ethylenediaminetetraacetic acid) and Eu-anti-phosphorylation-4E-BP1 (Thr37/46) antibody (purchased from PE Company, Catalog No.: TRF0216-M) into the reaction wells (after the testing liquid is added, the concentration of EDTA is 8 mM and the concentration of Eu-phosphorylation-4E-BP1 antibody is 2 nM); mixing it evenly and incubating it for 1 h under ambient temperature, then measuring the fluorescence intensity with a microplate reader and analyzing the result data with the software GraphPad Prism.
as §2, §3

[10] = test system: acetylated histone H3 (Ac-H3) in A2780s cells; assay: Induction of histone H3 acetylation in A2780s cells (cytoblot); type: cell-based; conditions: Homo sapiens, 6 h treatment
Procedure: (§5) Specific operation: After the treatment, washing each well once with 50-100 μl of cold TBS buffer [with the composition as 20 mM Tris (trismetyl aminomethane), pH7.5] and fixing it with 100 μL of 4% pre-cooled paraformaldehyde at 4° C. for 1 h; after paraformaldehyde is washed off, adding 50 μL of pre-cooled methyl alcohol in each well and evenly spreading at 4° C. for 5 min; after methyl alcohol is washed off, washing it once with the TBS buffer containing 3% skim milk powder and adding 50 μL of antibody fluid, oscillating it slightly at 4° C. and incubating overnight. For determination of Ac—H3, the antibody fluid is prepared by diluting Ac—H3 antibody and horseradish peroxide coupled secondary antibody to a same system with the TBS buffer containing 3% skim milk powder (Ac—H3 antibody is purchased from Santa Cruz Company and diluted at a ratio of 1:100; horseradish peroxide coupled secondary antibody is purchased from Jackson Company and diluted at a ratio of 1:2000); for determination of acetylated Ac-α-tubulin, the antibody fluid is prepared by diluting Ac-α-tubulin antibody and horseradish peroxide coupled secondary antibody to a same system with the TBS buffer containing 3% skim milk powder (Ac-α-tubulin antibody is purchased from Santa Cruz Company and diluted at a ratio of 1:100; horseradish peroxide coupled secondary antibody is purchased from Jackson Company and diluted at a ratio of 1:2000).
(§6) Calculating the value of IC50 as per the formula: Y=background data+(top data−background data)/(1+10^((Log EC50−X)*rate of curve)) Where, Y refers to the activating rate (%) and X refers to the compound concentration.

[11] = test system: acetylated Ac-α-tubulin in A2780s cells; assay: Induction of α-tubulin acetylation in A2780s cells (cytoblot); type: cell-based; conditions: Homo sapiens, 6 h treatment, read-out: Ac-Tub EC50
Procedure: as §5, §6

[12] = Table 1, graded, read-out: PI3Kα IC50
[13] = read-out: inhibition value IC50 to the activity of PI3Kα
[14] = 96 h incubation, read-out: Proliferation IC50, Acute myeloid leukemia MV4-11
[15] = 96 h incubation, read-out: Proliferation IC50, Colon cancer hct116
[16] = 96 h incubation, read-out: Proliferation IC50, Ovarian cancer A2780s
[17] = Table 1, graded, read-out: HDAC1 IC50
[18] = read-out: inhibition value IC50 to the activity of HDAC1
[19] = read-out: IC50 to proliferation of MV4-11 cells
[20] = read-out: IC50 to proliferation of hct116 cells
[21] = read-out: IC50 to proliferation of A2780s cells

T5 sequence (P48736 whole entry): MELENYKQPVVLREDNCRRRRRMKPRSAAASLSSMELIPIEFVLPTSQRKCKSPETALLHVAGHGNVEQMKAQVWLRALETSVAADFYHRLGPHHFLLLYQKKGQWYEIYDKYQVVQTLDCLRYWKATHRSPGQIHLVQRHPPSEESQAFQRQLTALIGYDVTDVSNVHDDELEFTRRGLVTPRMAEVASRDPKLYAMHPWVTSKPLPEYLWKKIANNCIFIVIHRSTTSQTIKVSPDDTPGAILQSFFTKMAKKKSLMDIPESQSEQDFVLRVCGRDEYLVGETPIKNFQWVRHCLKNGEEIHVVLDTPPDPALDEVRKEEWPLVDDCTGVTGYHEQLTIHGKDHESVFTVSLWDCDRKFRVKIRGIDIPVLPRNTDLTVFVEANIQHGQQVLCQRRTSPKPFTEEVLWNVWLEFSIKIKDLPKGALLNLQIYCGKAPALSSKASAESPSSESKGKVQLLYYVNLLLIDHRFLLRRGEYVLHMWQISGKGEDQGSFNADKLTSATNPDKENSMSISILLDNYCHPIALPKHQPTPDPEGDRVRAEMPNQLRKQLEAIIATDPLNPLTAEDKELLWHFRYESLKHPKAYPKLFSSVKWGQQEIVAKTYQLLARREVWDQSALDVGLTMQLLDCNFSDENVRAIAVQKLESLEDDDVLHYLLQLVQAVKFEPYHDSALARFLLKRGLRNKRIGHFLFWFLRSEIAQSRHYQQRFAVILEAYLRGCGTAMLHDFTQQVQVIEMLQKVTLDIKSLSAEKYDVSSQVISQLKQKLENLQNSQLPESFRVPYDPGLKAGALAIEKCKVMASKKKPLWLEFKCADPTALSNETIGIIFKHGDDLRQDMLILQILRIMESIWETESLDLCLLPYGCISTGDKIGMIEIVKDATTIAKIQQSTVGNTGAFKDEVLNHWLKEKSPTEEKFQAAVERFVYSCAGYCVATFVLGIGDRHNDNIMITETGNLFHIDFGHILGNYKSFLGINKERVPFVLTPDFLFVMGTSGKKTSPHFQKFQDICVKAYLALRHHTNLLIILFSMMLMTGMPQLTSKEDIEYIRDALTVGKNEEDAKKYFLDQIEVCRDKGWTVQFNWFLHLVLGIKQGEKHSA
T3 sequence (Q13547 whole entry, species assumed): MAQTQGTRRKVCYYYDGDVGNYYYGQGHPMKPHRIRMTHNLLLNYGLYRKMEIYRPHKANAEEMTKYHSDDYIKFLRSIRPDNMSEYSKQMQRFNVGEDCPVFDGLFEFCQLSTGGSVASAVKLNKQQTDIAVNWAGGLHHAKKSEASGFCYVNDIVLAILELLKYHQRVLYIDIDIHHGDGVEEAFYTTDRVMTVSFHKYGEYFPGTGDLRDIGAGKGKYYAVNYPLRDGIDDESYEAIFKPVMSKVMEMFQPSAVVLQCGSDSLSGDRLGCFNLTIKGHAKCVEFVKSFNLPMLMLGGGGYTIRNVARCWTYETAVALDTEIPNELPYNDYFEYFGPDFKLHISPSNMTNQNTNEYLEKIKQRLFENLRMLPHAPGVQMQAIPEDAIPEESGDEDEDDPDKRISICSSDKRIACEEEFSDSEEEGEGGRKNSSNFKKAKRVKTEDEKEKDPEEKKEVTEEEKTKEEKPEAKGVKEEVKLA
T6 sequence (P42345 1362-2549 limits assumed): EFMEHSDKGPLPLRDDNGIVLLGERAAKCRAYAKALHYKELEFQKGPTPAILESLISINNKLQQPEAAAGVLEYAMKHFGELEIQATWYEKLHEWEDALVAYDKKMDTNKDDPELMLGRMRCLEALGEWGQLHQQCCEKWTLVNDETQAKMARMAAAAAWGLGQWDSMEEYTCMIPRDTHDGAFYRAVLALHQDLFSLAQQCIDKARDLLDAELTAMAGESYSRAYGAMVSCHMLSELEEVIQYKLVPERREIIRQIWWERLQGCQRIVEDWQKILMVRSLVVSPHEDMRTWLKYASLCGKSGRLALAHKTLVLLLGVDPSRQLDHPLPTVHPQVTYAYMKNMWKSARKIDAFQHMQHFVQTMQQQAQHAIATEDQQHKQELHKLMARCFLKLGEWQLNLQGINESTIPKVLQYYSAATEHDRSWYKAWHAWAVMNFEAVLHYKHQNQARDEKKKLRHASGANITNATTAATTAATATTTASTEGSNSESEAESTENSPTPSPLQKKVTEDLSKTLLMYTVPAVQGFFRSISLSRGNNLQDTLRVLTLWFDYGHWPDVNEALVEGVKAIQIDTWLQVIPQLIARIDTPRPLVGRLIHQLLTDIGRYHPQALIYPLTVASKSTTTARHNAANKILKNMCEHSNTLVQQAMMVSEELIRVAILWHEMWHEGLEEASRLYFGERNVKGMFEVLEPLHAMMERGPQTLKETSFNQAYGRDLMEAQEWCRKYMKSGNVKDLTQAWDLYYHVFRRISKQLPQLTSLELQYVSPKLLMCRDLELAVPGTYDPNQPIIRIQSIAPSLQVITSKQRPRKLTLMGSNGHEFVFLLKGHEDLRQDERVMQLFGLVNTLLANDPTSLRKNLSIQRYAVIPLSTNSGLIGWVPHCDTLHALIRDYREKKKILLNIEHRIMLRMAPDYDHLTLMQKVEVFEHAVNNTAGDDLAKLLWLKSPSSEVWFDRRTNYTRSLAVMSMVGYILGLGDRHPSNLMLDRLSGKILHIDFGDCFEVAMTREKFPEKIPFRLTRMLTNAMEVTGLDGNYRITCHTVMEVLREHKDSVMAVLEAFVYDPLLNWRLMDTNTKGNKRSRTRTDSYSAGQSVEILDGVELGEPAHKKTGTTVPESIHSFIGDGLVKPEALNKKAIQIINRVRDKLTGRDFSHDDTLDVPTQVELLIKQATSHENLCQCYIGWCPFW
T2 sequence (O00329 whole entry): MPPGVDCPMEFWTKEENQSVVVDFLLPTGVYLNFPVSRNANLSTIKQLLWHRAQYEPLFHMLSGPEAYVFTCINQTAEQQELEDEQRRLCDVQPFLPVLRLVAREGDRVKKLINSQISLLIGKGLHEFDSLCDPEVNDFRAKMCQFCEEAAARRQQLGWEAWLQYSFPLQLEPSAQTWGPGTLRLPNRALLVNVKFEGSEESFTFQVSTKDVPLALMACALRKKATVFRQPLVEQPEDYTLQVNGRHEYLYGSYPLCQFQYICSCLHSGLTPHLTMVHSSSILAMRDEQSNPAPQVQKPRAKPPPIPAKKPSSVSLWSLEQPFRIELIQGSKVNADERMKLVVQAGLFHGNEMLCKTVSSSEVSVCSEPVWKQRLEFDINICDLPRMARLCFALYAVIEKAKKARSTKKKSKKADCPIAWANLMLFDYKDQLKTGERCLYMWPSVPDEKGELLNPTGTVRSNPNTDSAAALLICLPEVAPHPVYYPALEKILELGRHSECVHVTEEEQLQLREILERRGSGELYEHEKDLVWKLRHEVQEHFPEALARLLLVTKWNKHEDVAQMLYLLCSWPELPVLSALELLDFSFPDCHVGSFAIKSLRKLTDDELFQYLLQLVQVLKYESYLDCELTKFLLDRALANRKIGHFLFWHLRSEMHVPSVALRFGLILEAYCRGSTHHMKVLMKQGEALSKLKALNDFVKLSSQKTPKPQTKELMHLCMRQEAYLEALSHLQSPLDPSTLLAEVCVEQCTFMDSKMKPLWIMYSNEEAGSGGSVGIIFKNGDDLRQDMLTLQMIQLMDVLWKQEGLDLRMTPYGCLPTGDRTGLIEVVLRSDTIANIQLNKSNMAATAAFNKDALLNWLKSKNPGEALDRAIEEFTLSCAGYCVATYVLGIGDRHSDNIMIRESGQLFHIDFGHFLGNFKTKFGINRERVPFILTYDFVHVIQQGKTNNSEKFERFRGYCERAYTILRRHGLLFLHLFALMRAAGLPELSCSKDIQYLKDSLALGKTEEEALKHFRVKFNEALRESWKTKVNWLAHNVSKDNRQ
T2 sequence (P27986 whole entry partner): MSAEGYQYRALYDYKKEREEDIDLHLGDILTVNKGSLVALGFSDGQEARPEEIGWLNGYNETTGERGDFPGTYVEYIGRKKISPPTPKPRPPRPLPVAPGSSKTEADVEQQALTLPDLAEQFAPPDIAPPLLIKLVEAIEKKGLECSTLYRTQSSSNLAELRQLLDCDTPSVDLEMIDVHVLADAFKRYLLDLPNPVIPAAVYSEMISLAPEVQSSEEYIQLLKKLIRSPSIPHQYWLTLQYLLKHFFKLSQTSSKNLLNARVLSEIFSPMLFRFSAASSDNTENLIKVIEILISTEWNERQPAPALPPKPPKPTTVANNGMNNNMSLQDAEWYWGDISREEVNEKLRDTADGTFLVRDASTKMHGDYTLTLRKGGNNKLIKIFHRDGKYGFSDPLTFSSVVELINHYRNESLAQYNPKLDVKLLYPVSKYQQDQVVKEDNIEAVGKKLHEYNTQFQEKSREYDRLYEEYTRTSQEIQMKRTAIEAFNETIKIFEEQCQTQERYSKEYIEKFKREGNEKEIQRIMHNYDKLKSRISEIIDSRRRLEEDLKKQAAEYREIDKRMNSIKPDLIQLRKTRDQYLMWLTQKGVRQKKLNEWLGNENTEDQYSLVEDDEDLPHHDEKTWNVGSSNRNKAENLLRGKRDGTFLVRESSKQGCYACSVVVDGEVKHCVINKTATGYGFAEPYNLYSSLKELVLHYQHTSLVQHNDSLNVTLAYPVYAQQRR

| SMILES | IC50 [1, 12] [nM] | IC50 [1, 13] [nM] | IC50 [2, 14] [nM] | IC50 [3] [nM] | IC50 [4, 15] [nM] | IC50 [5, 16] [nM] | IC50 [6, 17] [nM] | IC50 [6, 18] [nM] | IC50 [7] [nM] | IC50 [8] [nM] | IC50 [9] [nM] | IC50 [2, 19] [nM] | IC50 [4, 20] [nM] | IC50 [5, 21] [nM] | EC50 [10] [nM] | EC50 [11] [nM] |
| --- | --- | --- | --- | --- | --- | --- | --- | --- | --- | --- | --- | --- | --- | --- | --- | --- |
| CCN(Cc1nc2c(N3CCOCC3)nc(-c3ccc(OC)nc3)nc2n1C)c1ncc(C(=O)NO)cn1 [CLJ-5, N-hydroxy-2-(((2-(6-methoxyl-3-pyridyl)-9-methyl-6-morpholine-9H-purine-8-yl))methyl(ethyl)amino)pyrimidine-5-formamide] | < 100 | < 100 | 100 to 1000 | 100 to 1000 | 100 to 1000 | 100 to 1000 | 100 to 1000 | < 100 | 100 to 1000 | 100 to 1000 | 100 to 1000 |  |  |  |  |  |
| CCCN(Cc1nc2c(N3CCOCC3)nc(-c3ccc(OC)nc3)nc2n1C)c1ncc(C(=O)NO)cn1 [CLJ-6, N-hydroxy-2-(((2-(6-methoxyl-3-pyridyl)-9-methyl-6-morpholine-9H-purine-8-yl))methyl(propyl)amino)pyrimidine-5-formamide] | > 10000 |  | > 1000 | > 10000 | > 1000 | > 1000 | 100 to 1000 |  | > 10000 | > 10000 | > 10000 |  |  |  |  |  |
| CNc1ncc(-c2nc(N3CCOCC3)c3nc(CN(C)c4ncc(C(=O)NO)cn4)n(C)c3n2)cn1 [CLJ-12, 2-(((2-(4-aminemethylpyrimidine)-9-methyl-6-morpholine-9H-purine-8-yl))methyl(methyl)amino)-N-hydroxyl pyrimidine-5-formamide] | < 100 | < 100 | 0.1 to 10 | 100 to 1000 | 0.1 to 10 | 0.1 to 10 | < 100 |  | 100 to 1000 | 100 to 1000 | 100 to 1000 | 0.1 to 10 | 0.1 to 10 | 0.1 to 10 |  |  |
| Cc1ncc(-c2nc(N3CCOCC3)c3nc(CN(C)c4ncc(C(=O)NO)cn4)n(C)c3n2)cn1 [CLJ-13] | < 100 | < 100 | 0.1 to 10 | 100 to 1000 | 0.1 to 10 | 0.1 to 10 | < 100 |  | 100 to 1000 | 100 to 1000 | 100 to 1000 | 0.1 to 10 | 0.1 to 10 | 0.1 to 10 |  |  |
| CN(Cc1nc2c(N3CCOCC3)nc(-c3cnc4ccccc4c3)nc2n1C)c1ncc(C(=O)NO)cn1 [CLJ-14, 2-(((2-(quinoline-3-yl)-9-methyl-6-morpholine-9H-purine-8-yl))methyl(methyl)amino)-N-hydroxyl pyrimidine-5-formamide] | > 10000 |  | 0.1 to 10 | > 10000 | 10 to 100 | 0.1 to 10 | < 100 |  | > 10000 | > 10000 | > 10000 |  |  |  |  |  |
| CN(Cc1nc2c(N3CCOCC3)nc(-c3ccc4[nH]ncc4c3)nc2n1C)c1ncc(C(=O)NO)cn1 [CLJ-15, 2-(((2-(1H-indazole-5-yl)-9-methyl-6-morpholine-9H-purine-8-yl))methyl(methyl)amino)-N-hydroxyl pyrimidine-5-formamide] | 1000 to 10000 |  | 10 to 100 | > 10000 | 10 to 100 | 10 to 100 | < 1 | < 1 | > 10000 | > 10000 | > 10000 |  |  |  |  |  |
| COc1ccc(-c2nc(N3CCOCC3)c3sc(CN(C)c4ncc(C(=O)NO)cn4)cc3n2)cn1 [CUDC907, reference compound] |  |  |  |  |  |  |  |  |  |  | 1000 to 10000 |  |  |  | 100 to 200 | > 200 |

From patent US10227347B2, “Purinyl-N-hydroxyl pyrimidine formamide derivative, preparation methods and uses thereof” (Guizhou Bailing Group Pharmaceutical CO., LTD., priority 2015, dated 2019)
